Laboratory results from US20260223850A1, “SUBSTITUTED PYRROLIDONE COMPOUND, PREPARATION METHOD THEREFOR, COMPOSITION AND APPLICATION THEREOF” (QINGDAO KINGAGROOT CHEMICAL COMPOUND CO., LTD., priority 2023, published 2026).

How the values were obtained:
Format in all cases: in vivo
[1] = tested on: Leptochloa chinensis; assay: Seedling stage sealing experiment for water-seeding; details: 120 g a.i./ha, 15 days, fresh weight control rate
Outline: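 Seeds sown in soil-filled bowls kept moist in water-filled boxes; compound in acetone diluted with water and spray-applied at 120, 60, 30 and 15 g a.i./ha, triplicate. After 15 days in greenhouse, fresh-weight growth control scored on a 0–9 scale (9 = dead, 0 = no effect), averaged.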

[2] = tested on: Huaidao (rice cultivar); assay: Seedling stage sealing experiment for water-seeding (crop safety); details: 120 g a.i./ha, seedling stage sealing, 15 days, fresh weight control rate
Outline: (§1)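 Read-out: 0–9 damage level from fresh-weight control rate (9 = completely dead, 1 = under 10%, 0 = no effect), averaged over triplicates, taken 15 days after spraying. Doses were 120, 60, 30 and 15 g a.i./ha, acetone/water solution, spray tower.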

[3] = tested on: Echinochloa crusgalli; assay: Seedling stage sealing experiment for water-seeding; details: 120 g a.i./ha, 15 days, fresh weight control rate
[4] = tested on: Echinochloa phyllopogon; assay: as above; details: 120 g a.i./ha, 15 days, fresh weight control rate
Outline: as §1

[5] = tested on: Digitaria sanguinalis; assay: as above; details: 120 g a.i./ha, 15 days, fresh weight control rate
Outline: as §1

[6] = spray, seedling stage sealing for water-seeding

## Cc1cccc([C@H]2CN(C)C(=O)[C@@H]2C(=O)Nc2cnn(C)c2Cl)c1 [17′]
[1]
  Leptochloa chinensis activity level (growth control rate): 9
[2]
  Huaidao (rice cultivar) plant damage level: 0
[3]; seedling stage sealing
  Echinochloa crusgalli activity level (growth control rate): 9
[4]; seedling stage sealing
  Echinochloa phyllopogon activity level (growth control rate): 6 (Level 6: growth control rate greater than or equal to 70% and less than 80%)

## CN1C[C@H](c2cccc(C(F)(F)F)c2)[C@@H](C(=O)Nc2cnn(C)c2C(F)(F)F)C1=O [538′]
[3]; [6]
  Echinochloa crusgalli activity level (growth control rate): 9
[5]; [6]
  Digitaria sanguinalis activity level (growth control rate): 9
[4]; [6]
  Echinochloa phyllopogon activity level (growth control rate): 9

## CCc1c(NC(=O)[C@H]2C(=O)N(C)C[C@@H]2c2cc(C)cc(C)c2)cnn1C(F)F [544′]
[3]; [6]
  Echinochloa crusgalli activity level (growth control rate): 9
[5]; [6]
  Digitaria sanguinalis activity level (growth control rate): 9
[4]; [6]
  Echinochloa phyllopogon activity level (growth control rate): 9

## COCn1ncc(NC(=O)[C@H]2C(=O)N(C)C[C@@H]2c2cc(C)cc(C)c2)c1C1CC1 [549′]
[3]; [6]
  Echinochloa crusgalli activity level (growth control rate): 9
[5]; [6]
  Digitaria sanguinalis activity level (growth control rate): 9
[4]; [6]
  Echinochloa phyllopogon activity level (growth control rate): 9

## CN1C[C@H](c2cc(Br)cc(C(F)(F)F)c2)[C@@H](C(=O)Nc2cnn(C(F)F)c2Cl)C1=O [557′]
[3]; [6]
  Echinochloa crusgalli activity level (growth control rate): 9
[5]; [6]
  Digitaria sanguinalis activity level (growth control rate): 9
[4]; [6]
  Echinochloa phyllopogon activity level (growth control rate): 6 (Level 6: growth control rate greater than or equal to 70% and less than 80%)

## CN1CC(c2cccc(C(F)(F)F)c2)C(C(=O)Nc2cnn(C)c2Cl)C1=O (stereo not drawn) [Compound 1]
[3]; seedling stage sealing
  Echinochloa crusgalli activity level (growth control rate): 9
[5]; seedling stage sealing
  Digitaria sanguinalis activity level (growth control rate): 9
[4]; seedling stage sealing
  Echinochloa phyllopogon activity level (growth control rate): 9

## CN1CC(c2cccc(F)c2)C(C(=O)Nc2cnn(C)c2Cl)C1=O (stereo not drawn) [Compound 15]
[3]; seedling stage sealing
  Echinochloa crusgalli activity level (growth control rate): 9
[5]; seedling stage sealing
  Digitaria sanguinalis activity level (growth control rate): 9
[4]; seedling stage sealing
  Echinochloa phyllopogon activity level (growth control rate): 6 (Level 6: growth control rate greater than or equal to 70% and less than 80%)

## C=CCOc1cccc(C2CN(C)C(=O)C2C(=O)Nc2cnn(C)c2Cl)c1 (stereo not drawn) [Compound 30]
[3]; seedling stage sealing
  Echinochloa crusgalli activity level (growth control rate): 9
[5]; seedling stage sealing
  Digitaria sanguinalis activity level (growth control rate): 9
[4]; seedling stage sealing
  Echinochloa phyllopogon activity level (growth control rate): 9

## CN1CC(c2ccc(F)c(C(F)(F)F)c2)C(C(=O)Nc2cnn(C)c2Cl)C1=O (stereo not drawn) [Compound 54]
[1]
  Leptochloa chinensis activity level (growth control rate): 9
[2]
  Huaidao (rice cultivar) plant damage level: 0
[3]; seedling stage sealing
  Echinochloa crusgalli activity level (growth control rate): 9
[4]; seedling stage sealing
  Echinochloa phyllopogon activity level (growth control rate): 9

## CCn1ncc(NC(=O)C2C(=O)N(C)CC2c2cccc(C(F)(F)F)c2)c1Cl (stereo not drawn) [Compound 95]
[1]
  Leptochloa chinensis activity level (growth control rate): 9
[3]; seedling stage sealing
  Echinochloa crusgalli activity level (growth control rate): 6 (Level 6: growth control rate greater than or equal to 70% and less than 80%)
[4]; seedling stage sealing
  Echinochloa phyllopogon activity level (growth control rate): 6 (Level 6: growth control rate greater than or equal to 70% and less than 80%)

## CC(C)n1ncc(NC(=O)C2C(=O)N(C)CC2c2cccc(C(F)(F)F)c2)c1Cl (stereo not drawn) [Compound 97]
[1]
  Leptochloa chinensis activity level (growth control rate): 9
[3]; seedling stage sealing
  Echinochloa crusgalli activity level (growth control rate): 9
[4]; seedling stage sealing
  Echinochloa phyllopogon activity level (growth control rate): 7 (Level 7: growth control rate greater than or equal to 80% and less than 90%)

## CN1CC(c2cc(F)cc(F)c2)C(C(=O)Nc2cnn(C)c2Cl)C1=O (stereo not drawn) [Compound 115]
[1]
  Leptochloa chinensis activity level (growth control rate): 6 (Level 6: growth control rate greater than or equal to 70% and less than 80%)
[3]; seedling stage sealing
  Echinochloa crusgalli activity level (growth control rate): 9
[4]; seedling stage sealing
  Echinochloa phyllopogon activity level (growth control rate): 6 (Level 6: growth control rate greater than or equal to 70% and less than 80%)

## CN1CC(c2ccc(F)c(F)c2)C(C(=O)Nc2cnn(C)c2Cl)C1=O (stereo not drawn) [Compound 116]
[3]; seedling stage sealing
  Echinochloa crusgalli activity level (growth control rate): 7 (Level 7: growth control rate greater than or equal to 80% and less than 90%)
[5]; seedling stage sealing
  Digitaria sanguinalis activity level (growth control rate): 9
[4]; seedling stage sealing
  Echinochloa phyllopogon activity level (growth control rate): 6 (Level 6: growth control rate greater than or equal to 70% and less than 80%)

## CN1CC(c2ccccc2)C(C(=O)Nc2cnn(C)c2Cl)C1=O (stereo not drawn) [Compound 121]
[1]
  Leptochloa chinensis activity level (growth control rate): 6 (Level 6: growth control rate greater than or equal to 70% and less than 80%)
[2]
  Huaidao (rice cultivar) plant damage level: 0
[3]; seedling stage sealing
  Echinochloa crusgalli activity level (growth control rate): 9
[4]; seedling stage sealing
  Echinochloa phyllopogon activity level (growth control rate): 9

## CN1CC(c2cccc(Br)c2)C(C(=O)Nc2cnn(C)c2Cl)C1=O (stereo not drawn) [Compound 126]
[1]
  Leptochloa chinensis activity level (growth control rate): 9
[3]; seedling stage sealing
  Echinochloa crusgalli activity level (growth control rate): 7 (Level 7: growth control rate greater than or equal to 80% and less than 90%)
[4]; seedling stage sealing
  Echinochloa phyllopogon activity level (growth control rate): 7 (Level 7: growth control rate greater than or equal to 80% and less than 90%)

## CN1CC(c2cccc(C(F)(F)F)c2)C(C(=O)Nc2cnn(C(F)F)c2)C1=O (stereo not drawn) [Compound 159]
[3]; seedling stage sealing
  Echinochloa crusgalli activity level (growth control rate): 7 (Level 7: growth control rate greater than or equal to 80% and less than 90%)
[5]; seedling stage sealing
  Digitaria sanguinalis activity level (growth control rate): 9
[4]; seedling stage sealing
  Echinochloa phyllopogon activity level (growth control rate): 6 (Level 6: growth control rate greater than or equal to 70% and less than 80%)

## CN1CC(c2cccc(C(F)(F)F)c2)C(C(=O)Nc2cnn(C3CC3)c2Cl)C1=O (stereo not drawn) [Compound 164]
[1]
  Leptochloa chinensis activity level (growth control rate): 9
[3]; seedling stage sealing
  Echinochloa crusgalli activity level (growth control rate): 7 (Level 7: growth control rate greater than or equal to 80% and less than 90%)
[4]; seedling stage sealing
  Echinochloa phyllopogon activity level (growth control rate): 6 (Level 6: growth control rate greater than or equal to 70% and less than 80%)

## Cc1cc(C)cc(C2CN(C)C(=O)C2C(=O)Nc2c(O)nn(C)c2F)c1 (stereo not drawn) [Compound 286]
[1]
  Leptochloa chinensis activity level (growth control rate): 9
[3]; seedling stage sealing
  Echinochloa crusgalli activity level (growth control rate): 9
[4]; seedling stage sealing
  Echinochloa phyllopogon activity level (growth control rate): 7 (Level 7: growth control rate greater than or equal to 80% and less than 90%)

## CN1CC(c2ccc(F)cc2F)C(C(=O)Nc2cnn(C)c2Cl)C1=O (stereo not drawn) [Compound 304]
[1]
  Leptochloa chinensis activity level (growth control rate): 5 (Level 5: growth control rate greater than or equal to 50% and less than 70%)
[3]; seedling stage sealing
  Echinochloa crusgalli activity level (growth control rate): 7 (Level 7: growth control rate greater than or equal to 80% and less than 90%)
[4]; seedling stage sealing
  Echinochloa phyllopogon activity level (growth control rate): 6 (Level 6: growth control rate greater than or equal to 70% and less than 80%)

## COc1cccc(C2CN(C)C(=O)C2C(=O)Nc2cnn(C)c2Cl)c1F (stereo not drawn) [Compound 307]
[1]
  Leptochloa chinensis activity level (growth control rate): 5 (Level 5: growth control rate greater than or equal to 50% and less than 70%)
[3]; seedling stage sealing
  Echinochloa crusgalli activity level (growth control rate): 6 (Level 6: growth control rate greater than or equal to 70% and less than 80%)
[4]; seedling stage sealing
  Echinochloa phyllopogon activity level (growth control rate): 6 (Level 6: growth control rate greater than or equal to 70% and less than 80%)

## CN1CC(c2ccc(Cl)c(Cl)c2)C(C(=O)Nc2cnn(C)c2Cl)C1=O (stereo not drawn) [Compound 309]
[1]
  Leptochloa chinensis activity level (growth control rate): 9
[3]; seedling stage sealing
  Echinochloa crusgalli activity level (growth control rate): 6 (Level 6: growth control rate greater than or equal to 70% and less than 80%)
[4]; seedling stage sealing
  Echinochloa phyllopogon activity level (growth control rate): 5 (Level 5: growth control rate greater than or equal to 50% and less than 70%)

## CN1CC(c2ccc(F)c(Cl)c2)C(C(=O)Nc2cnn(C)c2Cl)C1=O (stereo not drawn) [Compound 310]
[1]
  Leptochloa chinensis activity level (growth control rate): 9
[3]; seedling stage sealing
  Echinochloa crusgalli activity level (growth control rate): 9
[4]; seedling stage sealing
  Echinochloa phyllopogon activity level (growth control rate): 8 (Level 8: growth control rate greater than or equal to 90% and less than 100%)

## Cc1ccc(C2CN(C)C(=O)C2C(=O)Nc2cnn(C)c2Cl)cc1C (stereo not drawn) [Compound 314]
[1]
  Leptochloa chinensis activity level (growth control rate): 9
[3]; seedling stage sealing
  Echinochloa crusgalli activity level (growth control rate): 7 (Level 7: growth control rate greater than or equal to 80% and less than 90%)
[4]; seedling stage sealing
  Echinochloa phyllopogon activity level (growth control rate): 6 (Level 6: growth control rate greater than or equal to 70% and less than 80%)

## COc1cc(C2CN(C)C(=O)C2C(=O)Nc2cnn(C)c2Cl)ccc1F (stereo not drawn) [Compound 320]
[1]
  Leptochloa chinensis activity level (growth control rate): 5 (Level 5: growth control rate greater than or equal to 50% and less than 70%)
[3]; seedling stage sealing
  Echinochloa crusgalli activity level (growth control rate): 6 (Level 6: growth control rate greater than or equal to 70% and less than 80%)
[4]; seedling stage sealing
  Echinochloa phyllopogon activity level (growth control rate): 6 (Level 6: growth control rate greater than or equal to 70% and less than 80%)

## COc1cc(C2CN(C)C(=O)C2C(=O)Nc2cnn(C)c2Cl)ccc1C (stereo not drawn) [Compound 321]
[1]
  Leptochloa chinensis activity level (growth control rate): 6 (Level 6: growth control rate greater than or equal to 70% and less than 80%)
[3]; seedling stage sealing
  Echinochloa crusgalli activity level (growth control rate): 5 (Level 5: growth control rate greater than or equal to 50% and less than 70%)
[4]; seedling stage sealing
  Echinochloa phyllopogon activity level (growth control rate): 5 (Level 5: growth control rate greater than or equal to 50% and less than 70%)

## CN1CC(c2cc(F)c(F)c(F)c2)C(C(=O)Nc2cnn(C)c2F)C1=O (stereo not drawn) [Compound 323]
[1]
  Leptochloa chinensis activity level (growth control rate): 6 (Level 6: growth control rate greater than or equal to 70% and less than 80%)
[3]; seedling stage sealing
  Echinochloa crusgalli activity level (growth control rate): 5 (Level 5: growth control rate greater than or equal to 50% and less than 70%)
[4]; seedling stage sealing
  Echinochloa phyllopogon activity level (growth control rate): 5 (Level 5: growth control rate greater than or equal to 50% and less than 70%)

## CN1CC(c2cc(F)c(F)c(F)c2)C(C(=O)Nc2c(O)nn(C)c2F)C1=O (stereo not drawn) [Compound 324]
[1]
  Leptochloa chinensis activity level (growth control rate): 9
[3]; seedling stage sealing
  Echinochloa crusgalli activity level (growth control rate): 7 (Level 7: growth control rate greater than or equal to 80% and less than 90%)
[4]; seedling stage sealing
  Echinochloa phyllopogon activity level (growth control rate): 7 (Level 7: growth control rate greater than or equal to 80% and less than 90%)

## COc1c(Cl)ccc(C2CN(C)C(=O)C2C(=O)Nc2c(O)nn(C)c2F)c1F (stereo not drawn) [Compound 331]
[1]
  Leptochloa chinensis activity level (growth control rate): 9
[3]; seedling stage sealing
  Echinochloa crusgalli activity level (growth control rate): 9
[4]; seedling stage sealing
  Echinochloa phyllopogon activity level (growth control rate): 7 (Level 7: growth control rate greater than or equal to 80% and less than 90%)
